Laboratory results from patent US20220183279A1, “STABILIZED THIOKETONE FORMULATIONS” (priority 2019, published 2022).

Assay: Effect of 5% by weight additives on prothioconazole in N,N-dimethyldecanamide, LED 350 nm, 24 hours
Format: physicochemical
Settings: 0.4 g prothioconazole, 1.5 g N,N-dimethyldecanamide, 0.1 g stabiliser (5% by weight), 19 mW/cm^2, 24 hours, Comparison without additive 1539 ppm
Procedure: 0.4 g of prothioconazole, 1.5 g of N,N-dimethyldecanamide and 0.1 g of the respective stabiliser were combined in a 20 ml vial. The reaction mixtures were irradiated in a photoreactor with stirring (magnetic stirrer) using LED lamps (wavelength 350 nm, 19 mW/cm^2) for 24 hours. Samples were then taken and the respective content of compound III was determined by HPLC chromatography (column: Agilent Zorbax Eclipse Plus C18, 50×4.6 mm, 1.8 μm, mobile phase: acetonitrile/0.1% by weight of aqueous phosphoric acid, gradient at 2 ml/min, temperature: 45° C., external standard).

Point of comparison: `O=C(O)CNC(=O)CCS` [N-(Mercaptopropionyl)glycine], “Compound III (ppm)” value 1102 ppm. Against it:
- O[C@H](CS)[C@H](O)CS (racemic) [DL-Dithiothreitol] — lower, 749 ppm
- Cc1cc(O)cc2c1O[C@](C)(CCC[C@H](C)CCC[C@H](C)CCCC(C)C)CC2 [(+)-delta-Tocopherol] — lower, 81 ppm
- CCCCC(CC)COC(=O)C(C#N)=C(c1ccccc1)c1ccccc1 (stereo not drawn) [Octocrylene] — higher, 1377 ppm
- O=C(O)/C=C/c1ccc(O)c(O)c1 [Caffeic acid] — lower, 616 ppm
- O=C(O)C=Cc1ccc(O)cc1 [4-Hydroxycinnamic acid] — higher, 2754 ppm
- Cc1cc(C(C)(C)C)c(O)c(C(C)(C)C)c1 [Butylated hydroxytoluene (BHT), Butylated hydroxytoluene] — lower, 576 ppm
- C=CCc1ccc(O)c(OC)c1 [Eugenol] — lower, 580 ppm
- COc1cc(/C=C/C(=O)O)ccc1O [Ferulic acid] — higher, 2059 ppm
- COc1ccc(O)cc1 [4-Methoxyphenol] — higher, 1706 ppm
- (+/−)-alpha-Tocopherol — lower, 96 ppm
- O=C(O)c1cc(O)c(O)c(O)c1 [Gallic acid] — higher, 3700 ppm
